Assay results published in publication PMC11187260, “Unraveling the interconversion pharmacokinetics and oral bioavailability of the major ginger constituents: [6]-gingerol, [6]-shogaol, and zingerone after single-dose administration in rats” (Frontiers in Pharmacology, 2024).

Legend:
[1] = parameters: method as in Xu et al. (2016) and Jiang et al. (2008); conditions: 6G after oral administration in rats; ref Xu et al. (2016) and Jiang et al. (2008); cited from earlier work
[2] = Tissue distribution after single oral administration (30 mg/kg); type: in vivo; conditions: 1–2 h after oral 30 mg/kg
Protocol: Tissue distribution analysis was carried out after a 7-week washout period following the completion of the pharmacokinetic study. The animals received a single oral administration of either 6G, 6S, zingerone, or vehicle at a dosage of 30 mg/kg. Euthanasia was performed using an overdose of isoflurane (>10%) in an induction chamber, either one or 2 h after oral gavage (3 rats/timepoint), and death was confirmed by exsanguination. Subsequently, the stomach, small intestine, liver, large intestine, kidneys, heart, lung, hippocampus, cortex, spleen, ovaries, and spinal cord were collected. The dissected organs were thoroughly cleaned with a cold normal saline solution and the connective tissue was removed. The organs were then precisely weighed before being stored at −40 °C. All processes during tissue collection were performed on ice.
Urine samples were centrifuged, and 50 µL of urine was extracted with 200 µL of 100% methanol. The mixture was vortexed for 10 min and subsequently centrifuged at 14,000 × g at 4 °C for 10 min. Feces and organs were weighed and homogenized with methanol (50:50% w/v). The supernatants of the extracted urine, feces, and organs were also filtered through a […] PVDF membrane (Chrome Tech, MN, USA) before analysis.
Plasma concentration-time profiles were plotted using GraphPad Prism 9.3.0 (GraphPad Software, USA). The absolute oral bioavailability was calculated as follows: F = (AUC p.o./dose p.o.)/(AUC i.v./dose i.v.). The percentage recovery of each administered compound was calculated as the total amount of the drug found in urine or feces divided by the administered dose. The tissue-to-plasma concentration ratios (K p) were calculated by dividing the concentration in the tissue by the corresponding plasma concentration at the respective sampling time point.

[3] = Pharmacokinetics after single intravenous administration (3 mg/kg), plasma LC-MS/MS; type: in vivo, Female Sprague Dawley rats; conditions: female, Sprague-Dawley, rat, iv, plasma analyte after zingerone i.v. 3 mg/kg, mean ± SD n=6
Protocol: This study is composed of two sections; the first section involves an investigation of the interconversion pharmacokinetics of the pure compounds, and the second focuses on tissue distribution. All rats were transferred to metabolic cages and fasted overnight for at least 10 h. The animals were then randomly divided into four groups (6 rats/group) to receive a single intravenous (i.v.) administration of either 6G, 6S, zingerone, or vehicle via the lateral tail vein at a dosage of 3 mg/kg. After a 7-week washout period, the rats received 30 mg/kg of the same test compounds through a single oral (p.o.) administration. Following each administration, blood samples (300 µL) were collected in heparinized tubes from the lateral tail vein (while rats were under anesthesia with isoflurane) at specified time points: 0.083, 0.25, 0.5, 1, 1.5, 2, 3, 4, 6, 8, and 24 h after administration. An additional 1 mL of blood sample was collected from each rat at pre-dose (0 h) and post-dose (24 h) for clinical laboratory testing and safety evaluation. All heparinized blood samples were initially centrifuged at 5,000 × g, 4 °C, for 10 min. Subsequently, the plasma was carefully transferred to a cryotube as an aliquot sample and then stored at −40 °C until analysis. Urine and feces were collected during the intervals of 0–24 h and 24–48 h post-dosing, and their weights and volumes were documented. All collected urine and feces samples were stored at −40 °C until analysis. Plasma samples were processed through protein precipitation. In brief, 50 µL of plasma was mixed with 200 µL of methanol containing 50 ng/mL of IS (dihydrocapsaicin). The mixtures were vortexed and centrifuged at 14,000 × g at 4 °C for 10 min. The supernatant was filtered through a […] PVDF membrane (Chrome Tech, MN, USA) before analysis. Investigation of glucuronide conjugations followed a previously published method with some modification ([Wang et al., 2017]; [Songvut et al., 2023]). A 50 μL aliquot of plasma, urine, or feces sample was incubated at 37 °C for a minimum of 30 min with 50 μL of β-glucuronidase (3,000 U/mL) in a sodium phosphate buffer (pH 6.8). For sample extraction, 150 μL of methanol containing 50 μg/L of IS was pipetted into the pre-incubated samples. Subsequently, the mixtures were vortexed for 10 min and then centrifuged at 14,000 × g at 4 °C for 10 min. The supernatants were filtered through a […] PVDF membrane (Chrome Tech, MN, United States) and then analyzed using the validated LC-MS/MS method. Quantitative analysis was conducted using liquid chromatography-tandem mass spectrometry (LC-MS/MS) with a Nexera X2 LCMS-8060NX instrument (Shimadzu, Japan). The instrument included a CBM-40lite system controller, CTO-40C column oven, SIL-40C XR autosampler, LC-40D XR solvent pump unit, FCV-DGU-403 degasser, and 20AH2 switching valve. The LC-MS/MS system was operated with a binary pump and equipped with a triple quadrupole mass spectrometer. Pharmacokinetic parameters were assessed using PK Solutions software (version 2.0) with non-compartmental analysis. The AUC was calculated using the Linear-Log Trapezoidal Method. The maximum plasma concentration (Cmax) and time to reach maximum plasma concentration (Tmax) were taken directly from the graph.

Structure (SMILES)	Tmax [1]	distribution to brain regions (hippocampus and cortex) [2]	AUC(0-inf) [3]	C0 [3]	AUC(0-t) ([3]; read-out: AUC(0-t))	tissue-to-plasma ratios (rank among compounds) [2]
CCCCC[C@H](O)CC(=O)CCc1ccc(O)c(OC)c1 [[6]-gingerol]	10 min					
CCCCC/C=C/C(=O)CCc1ccc(O)c(OC)c1 [[6]-shogaol]		lacking presence in key brain regions				
COc1cc(CCC(C)=O)ccc1O [zingerone, 4-(4-hydroxy-3-methoxyphenyl)-2-butanone]		higher concentrations	12600 ng·h/mL	35100 ng/mL	12600 ng·h/mL	highest
